The values below come from US20250163061A1 (Bala Therapeutics, Inc., priority 2021, published 2025).

pEC50: −log10 of the molar value.

For series [1], the target named is recombinant MEN1 protein (Homo sapiens (Human), UniProt O00255). The experiment in a line: Primary fluorescence polarization assay of MEN1 activity inhibition (MEN1 / MLL4-43 peptide interaction). The series is classed as binding. The following applies: MEN1 10 nM, fluorescein-labeled MLL4-43 peptide 0.5 nM. As for the experimental part:
Compound activity was determined using recombinant MEN1 protein (Creativebiomart, Cat #MEN1-35H) and a custom fluorescein-labeled MLL4-43 peptide (Eton Bioscience Inc.). Interaction between MEN1 and MLL4-43 in the presence of compounds was determined by fluorescence polarization assay using a Microplate Reader ClarioStar Plus. The reaction was carried out in assay buffer (50 mM TRIS-HCl pH 7.4-7.6, 50 mM NaCl, 1 mM DTT, 0.1 mg/ml BSA). The compounds were dispensed on a 384 well Diamond Well Plate (Axigen, Cat #P-384-120SQ-C-S) using the Biomek FX liquid handling system at 100× solutions of compounds in DMSO. 2×MEN1 mix (final concentration of MEN1 10 nM) was prepared in Assay buffer and 10 μl of mixture per well was added into 384 w white Reaction plate with NBS (Corning, Cat #4513). 10 μl of Assay buffer w/o MEN1 was used for negative control. Plates were centrifuged for 1 min at 100 g. Next step the Compounds were added to Reaction plate using Biomek station via following steps: 3 μl of 100× compounds (in DMSO) were mixed thoroughly with 27 μl Assay Buffer, then 2 μl of this mixture was added to Reaction plate with 10 μl of MEN1 mix. Plates were centrifuged for 1 min at 100 g and incubated for 20 min at room temperature. Next 8 μL of MLL4-43 peptide per well was added to final concentration of MLL 0.5 nM. Plates were incubated for 1 hour at room temperature. Then fluorescence polarization was measured using Microplate Reader.

The test system of series [2] is MV4-11. Put plainly: MV4-11 cellular growth inhibition assay (CellTiter-Glo). The series is classed as cell-based. As to conditions: Homo sapiens, 168 h, MV4-11 cells, 7 days of incubation. As for the experimental part: (§1) HEK293 (Institute of Cytology Russian Academy of Science), MV4-11 (ATCC, CRL-9591), MOLM-13 (AcceGen, ABC-TC517S) were seeded at a density of 500 cells per well (HEK293) and 2000 cells per well (MV4-11, MOLM-13) in a 384-well clear bottom plate (Greiner Cat #781090) in 45 μl total volume of DMEM (PanEco, Cat #C420, Russia) or RPMI (PanEco, Cat #C330, Russia) with 10% FBS (HyClone Cat #SV30160.03). HEK293 were allowed to adhere overnight at 37° C., 5% CO2. 500× compounds solutions in DMSO (Sigma Cat #D2650) were prepared into Cmpnds plate (Diamond Well Plate, Axigen, Cat #P-384-120SQ-C-S) and DMSO only control was included. 1 μl of 500× compounds (Cmpnds plate) was added to 49 μl of culture medium into Dilution plate (Diamond Well Plate, Axigen, Cat #P-384-120SQ-C-S), mixed and then 5 μl of 10× compounds solutions were transferred to cells followed by centrifugation at 100 g for 1 min. Final DMSO concentration was 0.2%. After 3 days of incubation, 10 μl of 1× compounds were added to cells. After 7 days of incubation, 12 μl of CellTiter-Glo (Promega, CAT #G7572) were added to the cells, plate was centrifuged at 100 g for 1 min and luminescence signal was measured using Microplate Reader (CLARIOStar).
For orientation: ATP-based viability assays read luminescence as a measure of living cells.

Series [3] in a line: HEK293 cellular growth inhibition assay (CellTiter-Glo). The series is classed as cell-based. The following applies: human, HEK293 cells, 7 days of incubation. As to the method: as §1
Series [4] deals with MOLM-13. The experiment in a line: MOLM-13 cellular growth inhibition assay (CellTiter-Glo). The series is classed as cell-based. The following applies: Homo sapiens, 168 h, MOLM-13 cells, 7 days of incubation. As for the experimental part:
as §1

recombinant MEN1 protein, sequence (O00255 whole entry): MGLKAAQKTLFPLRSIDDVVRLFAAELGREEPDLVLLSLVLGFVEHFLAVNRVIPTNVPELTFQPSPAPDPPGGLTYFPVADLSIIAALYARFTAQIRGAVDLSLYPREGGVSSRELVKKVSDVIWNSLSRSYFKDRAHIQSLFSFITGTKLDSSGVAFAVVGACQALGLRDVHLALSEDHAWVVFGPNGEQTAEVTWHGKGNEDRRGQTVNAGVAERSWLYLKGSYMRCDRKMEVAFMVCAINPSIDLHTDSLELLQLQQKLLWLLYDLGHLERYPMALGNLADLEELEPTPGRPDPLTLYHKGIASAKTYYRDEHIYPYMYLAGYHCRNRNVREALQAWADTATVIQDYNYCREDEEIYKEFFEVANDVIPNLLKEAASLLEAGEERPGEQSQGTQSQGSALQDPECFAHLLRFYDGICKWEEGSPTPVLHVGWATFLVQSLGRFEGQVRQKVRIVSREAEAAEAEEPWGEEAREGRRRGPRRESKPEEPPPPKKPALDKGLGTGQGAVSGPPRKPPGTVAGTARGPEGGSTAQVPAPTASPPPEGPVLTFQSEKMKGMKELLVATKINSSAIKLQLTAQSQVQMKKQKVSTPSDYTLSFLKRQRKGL

The term pEC50 denotes the negative decadic logarithm of the EC50, by convention in mol/L. Regarding `CCS(=O)(=O)N[C@H]1CC[C@H](Cn2c(C#N)cc3c(C)c(CN4CCC5(CC4)CN(c4ncnc6ccc(CC(F)(F)F)cc46)C5)ccc32)CC1` [Compound 41], the negative-log EC50 (pEC50) in series [1] is 6.30 to 7.12. As for `Cc1c(CN2CCC3(CC2)CN(c2ncnc4ccc(CC(F)(F)F)cc24)C3)ccc2c1cc(C#N)n2CC1CN(CC(C)C)C(=O)CO1` (centres unmarked) [Compound 31, 1-[(4-Isobutyl-5-oxomorpholin-2-yl)methyl]-4-methyl-5-({2-[6-(2,2,2-trifluoroethyl)quinazolin-4-yl]-2,7-diazaspiro[3.5]non-7-yl}methyl)-1H-indole-2-carbonitrile], in series [1], the pEC50 is 6.30 to 7.12.

As to `Cc1c(CN2CCC3(CC2)CN(c2ncnc4ccc(CC(F)(F)F)cc24)C3)ccc2c1cc(C#N)n2CC1CN(S(C)(=O)=O)CCO1` (centres unmarked) [Compound 9], the pEC50 in series [1] is 6.30 to 7.12. The CC50 is the concentration giving 50% cytotoxicity. Low values mean harm at low concentration, high ones better tolerance by the cells. Regarding `CCS(=O)(=O)N1CCCN(C(C)Cn2c(C#N)cc3c(C)c(CN4CCC5(CC4)CN(c4ncnc6ccc(CC(F)(F)F)cc46)C5)ccc32)CC1` (centres unmarked) [Compound 53, 1-[2-(4-Ethylsulfonyl-1,4-diazepan-1-yl)propyl]-4-methyl-5-[[2-[6-(2,2,2-trifluoroethyl)quinazolin-4-yl]-2,7-diazaspiro[3.5]nonan-7-yl]methyl]indole-2-carbonitrile], the figures for the CC50 in series [2] and in series [4] were at most 100 nM and 100 to 500 nM, respectively. In series [1], the pEC50 is at least 7.12. The same compound showed a half-maximal cytotoxic concentration (CC50) at 7 days in series [3] of 5000 to 10000 nM. As for `Cc1c(CN2CCC3(CC2)CN(c2ncnc4ccc(CC(F)(F)F)cc24)C3)ccc2c1cc(C#N)n2CC1CN(C)C(=O)CN1` (centres unmarked) [Compound 46, 4-methyl-1-[(4-methyl-5-oxo-piperazin-2-yl)methyl]-5-[[2-[6-(2,2,2-trifluoroethyl)quinazolin-4-yl]-2,7-diazaspiro[3.5]nonan-7-yl]methyl]indole-2-carbonitrile], the negative-log EC50 (pEC50) in series [1] was 5.30 to 6.00.

With `Cc1c(CN2CCC3(CC2)CN(c2ncnc4ccc(CC(F)(F)F)cc24)C3)ccc2c1cc(C#N)n2C[C@@H]1CCC(=O)N[C@H]1c1ccccc1` [Compound 100, 4-Methyl-1-{[(2R,3S)-6-oxo-2-phenylpiperidin-3-yl]methyl}-5-({2-[6-(2,2,2-trifluoroethyl)quinazolin-4-yl]-2,7-diazaspiro[3.5]non-7-yl}methyl)-1H-indole-2-carbonitrile], in series [1], the negative-log EC50 (pEC50) is 6.30 to 7.12. With `Cc1c(CN2CCC3(CC2)CN(c2ncnc4ccc(CC(F)(F)F)cc24)C3)ccc2c1cc(C#N)n2CC1CNC(=O)N1` (centres unmarked) [Compound 6, 4-Methyl-1-[(2-oxoimidazolidin-4-yl)methyl]-5-({2-[6-(2,2,2-trifluoroethyl)quinazolin-4-yl]-2,7-diazaspiro[3.5]non-7-yl}methyl)-1H-indole-2-carbonitrile], the negative-log EC50 (pEC50) in series [1] is 5.30 to 6.00. `Cc1c(CN2CCC3(CC2)CN(c2ncnc4ccc(CC(F)(F)F)cc24)C3)ccc2c1cc(C#N)n2CC12CC(NC=O)(C1)C2` [Compound 95, (3-{[2-Cyano-4-methyl-5-({2-[6-(2,2,2-trifluoroethyl)quinazolin-4-yl]-2,7-diazaspiro[3.5]non-7-yl}methyl)-1H-indol-1-yl]methyl}bicyclo[1.1.1]pent-1-yl)formamide]: the 50% cytotoxic concentration (CC50) was at most 100 nM in series [2] and 100 to 500 nM in series [4]. Moreover, the 50% cytotoxic concentration (CC50) at 7 days in series [3] lay in the range of 2000 to 5000 nM. For `Cc1c(CN2CCC3(CC2)CN(c2cnnc4ccc(CC(F)(F)F)cc24)C3)ccc2c1cc(C#N)n2CC(C)N1CCN(S(C)(=O)=O)CC1` (centres unmarked) [Compound 80, 4-Methyl-1-[2-(4-methylsulfonylpiperazin-1-yl)propyl]-5-[[2-[6-(2,2,2-trifluoroethyl)cinnolin-4-yl]-2,7-diazaspiro[3.5]nonan-7-yl]methyl]indole-2-carbonitrile], the results for the cytotoxic concentration (CC50) in series [2] and in series [4] were 100 to 500 nM and 1000 to 5000 nM, respectively. Further, the negative logarithm of the EC50 (pEC50) in series [1] is at least 7.12. The same compound showed a CC50 at 7 days in series [3] of 5000 to 10000 nM.
